Experimental data taken from PubChem BioAssay (NCI).
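Five concentrations, 48 hours, 96-well plates. At the TGI there is no net growth.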

Columns and labels:
Assay in all cases: DTP human tumour cell line panel, 48 h
786-0 renal = tested on: 786-0 renal
A498 renal = tested on: A498 renal
A549 NSCLC = tested on: A549 NSCLC
ACHN renal = tested on: ACHN renal
BT-549 breast = tested on: BT-549 breast
CAKI-1 renal = tested on: CAKI-1 renal
CCRF-CEM leukemia = tested on: CCRF-CEM leukemia
COLO 205 colon = tested on: COLO 205 colon
DU-145 prostate = tested on: DU-145 prostate
EKVX NSCLC = tested on: EKVX NSCLC
HCC-2998 colon = tested on: HCC-2998 colon
HCT-116 colon = tested on: HCT-116 colon
HCT-15 colon = tested on: HCT-15 colon
HL-60(TB) leukemia = tested on: HL-60(TB) leukemia
HOP-62 NSCLC = tested on: HOP-62 NSCLC
HOP-92 NSCLC = tested on: HOP-92 NSCLC
HS 578T breast = tested on: HS 578T breast
HT29 colon = tested on: HT29 colon
IGROV1 ovarian = tested on: IGROV1 ovarian
K-562 leukemia = tested on: K-562 leukemia
KM12 colon = tested on: KM12 colon
LOX IMVI melanoma = tested on: LOX IMVI melanoma
M14 melanoma = tested on: M14 melanoma
MALME-3M melanoma = tested on: MALME-3M melanoma
MCF7 breast = tested on: MCF7 breast
MDA-MB-231 breast = tested on: MDA-MB-231 breast
MDA-MB-435 = tested on: MDA-MB-435
MDA-N = tested on: MDA-N
MOLT-4 leukemia = tested on: MOLT-4 leukemia
NCI-H226 lung = tested on: NCI-H226 lung
NCI-H23 lung = tested on: NCI-H23 lung
NCI-H460 lung = tested on: NCI-H460 lung
NCI-H522 lung = tested on: NCI-H522 lung
NCI/ADR-RES ovarian = tested on: NCI/ADR-RES ovarian
OVCAR-3 ovarian = tested on: OVCAR-3 ovarian
OVCAR-4 ovarian = tested on: OVCAR-4 ovarian
OVCAR-5 ovarian = tested on: OVCAR-5 ovarian
OVCAR-8 ovarian = tested on: OVCAR-8 ovarian
PC-3 prostate = tested on: PC-3 prostate
RPMI-8226 leukemia = tested on: RPMI-8226 leukemia
RXF 393 renal = tested on: RXF 393 renal
SF-268 CNS = tested on: SF-268 CNS
SF-295 CNS = tested on: SF-295 CNS
SF-539 CNS = tested on: SF-539 CNS
SK-MEL-2 melanoma = tested on: SK-MEL-2 melanoma
SK-MEL-28 melanoma = tested on: SK-MEL-28 melanoma
SK-MEL-5 melanoma = tested on: SK-MEL-5 melanoma
SK-OV-3 ovarian = tested on: SK-OV-3 ovarian
SN12C renal = tested on: SN12C renal
SNB-19 CNS = tested on: SNB-19 CNS
SNB-75 CNS = tested on: SNB-75 CNS
SR leukemia = tested on: SR leukemia
SW-620 colon = tested on: SW-620 colon
T-47D breast = tested on: T-47D breast
TK-10 renal = tested on: TK-10 renal
U251 CNS = tested on: U251 CNS
UACC-257 melanoma = tested on: UACC-257 melanoma
UACC-62 melanoma = tested on: UACC-62 melanoma
UO-31 renal = tested on: UO-31 renal

## COc1cccc(N2C(=O)C3c4[nH]c5ccccc5c4C4CCCC4C3C2=O)c1 (centres undefined)
786-0 renal
  TGI: 4.41 µM
A498 renal
  TGI: 5.1 µM
A549 NSCLC
  TGI: > 10 µM
ACHN renal
  TGI: > 10 µM
BT-549 breast
  TGI: > 10 µM
CAKI-1 renal
  TGI: > 10 µM
CCRF-CEM leukemia
  TGI: > 10 µM
COLO 205 colon
  TGI: > 10 µM
DU-145 prostate
  TGI: > 10 µM
EKVX NSCLC
  TGI: > 10 µM
HCC-2998 colon
  TGI: > 10 µM
HCT-116 colon
  TGI: 7.16 µM
HCT-15 colon
  TGI: > 10 µM
HL-60(TB) leukemia
  TGI: > 10 µM
HOP-62 NSCLC
  TGI: 6.25 µM
HOP-92 NSCLC
  TGI: > 10 µM
HS 578T breast
  TGI: 8.91 µM
HT29 colon
  TGI: > 10 µM
IGROV1 ovarian
  TGI: > 10 µM
K-562 leukemia
  TGI: > 10 µM
KM12 colon
  TGI: > 10 µM
LOX IMVI melanoma
  TGI: > 10 µM
M14 melanoma
  TGI: > 10 µM
MALME-3M melanoma
  TGI: 8.22 µM
MCF7 breast
  TGI: > 10 µM
MDA-MB-231 breast
  TGI: 5.63 µM
MDA-MB-435
  TGI: > 10 µM
MDA-N
  TGI: > 10 µM
MOLT-4 leukemia
  TGI: > 10 µM
NCI-H226 lung
  TGI: 7.59 µM
NCI-H23 lung
  TGI: > 10 µM
NCI-H460 lung
  TGI: > 10 µM
NCI-H522 lung
  TGI: > 10 µM
NCI/ADR-RES ovarian
  TGI: > 10 µM
OVCAR-3 ovarian
  TGI: > 10 µM
OVCAR-4 ovarian
  TGI: 4.76 µM
OVCAR-5 ovarian
  TGI: > 10 µM
OVCAR-8 ovarian
  TGI: > 10 µM
PC-3 prostate
  TGI: > 10 µM
RPMI-8226 leukemia
  TGI: > 10 µM
RXF 393 renal
  TGI: > 10 µM
SF-268 CNS
  TGI: > 10 µM
SF-295 CNS
  TGI: > 10 µM
SF-539 CNS
  TGI: > 10 µM
SK-MEL-2 melanoma
  TGI: > 10 µM
SK-MEL-28 melanoma
  TGI: > 10 µM
SK-MEL-5 melanoma
  TGI: > 10 µM
SK-OV-3 ovarian
  TGI: > 10 µM
SN12C renal
  TGI: 9.02 µM
SNB-19 CNS
  TGI: > 10 µM
SNB-75 CNS
  TGI: 5.77 µM
SR leukemia
  TGI: 4.09 µM
SW-620 colon
  TGI: > 10 µM
T-47D breast
  TGI: > 10 µM
TK-10 renal
  TGI: > 10 µM
U251 CNS
  TGI: > 10 µM
UACC-257 melanoma
  TGI: > 10 µM
UACC-62 melanoma
  TGI: > 10 µM

## CCN(CC)N1C(=O)[N+](CC)(CC)N=C1[O-]
786-0 renal
  TGI: > 100 µM
A498 renal
  TGI: > 100 µM
A549 NSCLC
  TGI: > 100 µM
ACHN renal
  TGI: > 100 µM
BT-549 breast
  TGI: > 100 µM
CAKI-1 renal
  TGI: > 100 µM
CCRF-CEM leukemia
  TGI: > 100 µM
COLO 205 colon
  TGI: > 100 µM
DU-145 prostate
  TGI: > 100 µM
EKVX NSCLC
  TGI: > 100 µM
HCC-2998 colon
  TGI: > 100 µM
HCT-116 colon
  TGI: > 100 µM
HCT-15 colon
  TGI: > 100 µM
HL-60(TB) leukemia
  TGI: > 100 µM
HOP-62 NSCLC
  TGI: > 100 µM
HOP-92 NSCLC
  TGI: > 100 µM
HS 578T breast
  TGI: > 100 µM
HT29 colon
  TGI: > 100 µM
IGROV1 ovarian
  TGI: > 100 µM
KM12 colon
  TGI: > 100 µM
LOX IMVI melanoma
  TGI: > 100 µM
M14 melanoma
  TGI: > 100 µM
MALME-3M melanoma
  TGI: > 100 µM
MCF7 breast
  TGI: > 100 µM
MDA-MB-231 breast
  TGI: > 100 µM
MDA-MB-435
  TGI: > 100 µM
MDA-N
  TGI: > 100 µM
MOLT-4 leukemia
  TGI: > 100 µM
NCI-H226 lung
  TGI: > 100 µM
NCI-H23 lung
  TGI: > 100 µM
NCI-H460 lung
  TGI: > 100 µM
NCI-H522 lung
  TGI: > 100 µM
NCI/ADR-RES ovarian
  TGI: > 100 µM
OVCAR-3 ovarian
  TGI: > 100 µM
OVCAR-4 ovarian
  TGI: > 100 µM
OVCAR-5 ovarian
  TGI: > 100 µM
OVCAR-8 ovarian
  TGI: > 100 µM
PC-3 prostate
  TGI: > 100 µM
RPMI-8226 leukemia
  TGI: > 100 µM
SF-268 CNS
  TGI: > 100 µM
SF-295 CNS
  TGI: > 100 µM
SF-539 CNS
  TGI: > 100 µM
SK-MEL-2 melanoma
  TGI: > 100 µM
SK-MEL-28 melanoma
  TGI: > 100 µM
SK-MEL-5 melanoma
  TGI: > 100 µM
SK-OV-3 ovarian
  TGI: > 100 µM
SN12C renal
  TGI: > 100 µM
SNB-19 CNS
  TGI: > 100 µM
SNB-75 CNS
  TGI: > 100 µM
SR leukemia
  TGI: > 100 µM
SW-620 colon
  TGI: > 100 µM
T-47D breast
  TGI: > 100 µM
TK-10 renal
  TGI: > 100 µM
U251 CNS
  TGI: > 100 µM
UACC-62 melanoma
  TGI: > 100 µM
UO-31 renal
  TGI: > 100 µM
